The source of these data is ChEMBL document CHEMBL1141685, “Hexahydro-pyrrolo- and hexahydro-1H-pyrido[1,2-b]pyridazin-2-ones as potent inhibitors of HCV NS5B polymerase” (Bioorg Med Chem Lett, 2008).

Bounds are passed on as bounds.

The test system of series [1] is Hepatitis C virus. Nature of the series: Inhibition of HCV 1b NS5B polymerase by microbeta scintillation counter. The arrangement: species or system Hepatitis C virus subtype 1b.
Series [2] can be described thus: Metabolic stability in cynomolgus monkey liver microsomes at 1 uM.
Series [3] can be described thus: Metabolic stability in human liver microsomes assessed as compound remaining at 1 uM after 60 mins. In kind it is ADME, Microsome. The conditions noted are these: read-out: Stability.
Series [4] has as its system Hepatitis C virus. Nature of the series: Antiviral activity against HCV 1b infected in human Huh7/C24 cells after 72 hrs by replicon assay. The conditions noted are these: genotype 1b, Huh-7, 72 h. In kind it is functional, organism-based, Hepacivirus hominis.
Series [5] can be described thus: Metabolic stability in human liver microsomes at 1 uM.
The nature of series [6]: Cytotoxicity against human Huh7/C24 cells after 72 hrs […]. The series is classed as cell-based, Huh-7.
Series [7] can be described thus: Apparent permeability from apical to basolateral side in human Caco-2 cell membrane at 10 uM.
Series [8] in a line: Metabolic stability in cynomolgus monkey liver microsomes assessed as compound remaining at 1 uM after 60 mins. In kind it is ADME, Macaca fascicularis, Microsome. The conditions noted are these: read-out: Stability.
Series [9] relates to Cynomolgus monkey. Put plainly: AUC (0 to infinity) in cynomolgus monkey at 1 mg/kg, po. The series is classed as ADME, organism-based, Macaca fascicularis, Plasma. Details: time infinity, dose 1 mg/kg, route oral. Particulars: in vivo.
The nature of series [10]: Fabs in cynomolgus monkey. The series is classed as ADME, organism-based, Macaca fascicularis. Particulars: in vivo, read-out: Fabs.
Series [11] deals with Cynomolgus monkey. Nature of the series: AUC (0 to infinity) in cynomolgus monkey at 1 mg/kg, iv. In kind it is ADME, organism-based, Macaca fascicularis, Plasma. The arrangement: time infinity, dose 1 mg/kg, route intravenous. The conditions noted are these: in vivo.
Series [12] relates to Cynomolgus monkey. Nature of the series: Hepatic blood flow in cynomolgus monkey. The series is classed as ADME, organism-based, Macaca fascicularis, Liver.
A short description of series [13]: Oral bioavailability in cynomolgus monkey at 1 mg/kg. In kind it is ADME, organism-based, Macaca fascicularis. Particulars: in vivo.

On to `CS(=O)(=O)Nc1ccc2c(c1)S(=O)(=O)N=C(c1c(O)c3cccn3n(Cc3ccc(F)cc3)c1=O)N2`, for which, in the series on Hepatitis C virus [1], the IC50 is < 10 nM. The half-life at 1 µM in series [2] (liver microsomes) and in series [5] (liver microsomes) was > 60 min each time. Also, the remaining at 1 h, 1 µM in [3] is 86%. Besides, in the series with Hepatitis C virus [4], the EC50 stood at 12 nM. Moreover, the CC50 at 72 h in series [6] was > 1000 nM.
For the compound `CS(=O)(=O)Nc1ccc2c(c1)S(=O)(=O)N=C(C1=C(O)C3CCCCN3N(Cc3ccc(F)cc3)C1=O)N2` (configuration not stated), in the series with Hepatitis C virus [1], the IC50 worked out at 16 nM. In addition, the half-life at 1 µM in series [2] (microsomes) and in [5] (microsomes) was > 60 min each time. The Papp A→B at 10 µM in series [7] was 0.1 ×10⁻⁶ cm/s. The remaining at 1 h, 1 µM in series [8] was determined as 100%; in series [3], 102%. The compound further yielded an EC50 in the series on Hepatitis C virus [4] of 300 nM. Besides, the CC50 at 72 h in [6] is > 1000 nM.
On to `CN(c1ccc2c(c1)S(=O)(=O)N=C(C1=C(O)C3CCCN3N(CCC(C)(C)C)C1=O)N2)S(C)(=O)=O` (configuration not stated), for which, in the series with Hepatitis C virus [1], the IC50 was 160 nM. Further, the values for the half-life at 1 µM in [2] (liver microsomes) and in [5] (liver microsomes) were 17 min and > 60 min, respectively. The compound also had an EC50 in the series with Hepatitis C virus [4] of 3600 nM. Further, the CC50 at 72 h in series [6] is > 33000 nM.
Turning to `CC(C)(C)CCN1C(=O)C(C2=NS(=O)(=O)c3cc(NS(C)(=O)=O)ccc3N2)=C(O)C2(C)CCCN12` (configuration not stated), in the series on Hepatitis C virus [1], the IC50 is 180 nM. The half-life at 1 µM in series [2] (liver microsomes) worked out at 10 min; in series [5] (liver microsomes), 4.9 min. In addition, the Papp A→B at 10 µM in [7] is 0.6 ×10⁻⁶ cm/s. The same compound displayed an EC50 in the series on Hepatitis C virus [4] of 1100 nM. The CC50 at 72 h in [6] is > 33000 nM.
For `CC(C)(C)CCN1C(=O)C(C2=NS(=O)(=O)c3cc(NS(C)(=O)=O)ccc3N2)=C(O)C2CCCCN21` (configuration not stated), half-maximal inhibition in the series on Hepatitis C virus [1] (IC50) required 41 nM. For the same compound, the half-life at 1 µM in series [2] (liver microsomes) was 18 min; in series [5] (liver microsomes) it was 52 min. Moreover, in series [7], the Papp A→B at 10 µM is 0.31 ×10⁻⁶ cm/s. For the same compound, the EC50 in the series on Hepatitis C virus [4] turned out to be 110 nM. The 50% cytotoxic concentration (CC50) at 72 h in series [6] was > 33000 nM.
Regarding `CS(=O)(=O)Nc1ccc2c(c1)S(=O)(=O)N=C(C1=C(O)C3CCCN3N(Cc3ccc(F)cc3)C1=O)N2` (configuration not stated), the IC50 in the series with Hepatitis C virus [1] was < 10 nM. Further, the half-life at 1 µM in [2] (liver microsomes) and in series [5] (liver microsomes) was > 60 min in each case. Also, the Papp A→B at 10 µM in series [7] was 0.2 ×10⁻⁶ cm/s. The remaining at 1 h, 1 µM in series [8] came to 94%; in series [3] it was 87%. The compound also came in with an EC50 in the series with Hepatitis C virus [4] of 190 nM. In addition, the CC50 at 72 h in series [6] was > 1000 nM.
`CC(C)(C)CCN1C(=O)C(C2=NS(=O)(=O)c3cc(NS(C)(=O)=O)ccc3N2)=C(O)C2CCCN21` (configuration not stated): the AUC in the series on Cynomolgus monkey [9] was determined as 344 ng·h/mL; in the series with Cynomolgus monkey [11], 5180 ng·h/mL. Moreover, in the series on Hepatitis C virus [1], the IC50 is < 10 nM. For the same compound, the half-life at 1 µM was found to be 7.5 min in series [2] (microsomes) and 59 min in series [5] (microsomes). Also, the Fa in series [10] was 8%. For the same compound, in series [7], the Papp A→B at 10 µM is 0.44 ×10⁻⁶ cm/s. The QH in the series on Cynomolgus monkey [12] came out at 44 mL/min/kg. Also, in series [13], the bioavailability was determined as 7%. This compound yielded a half-maximal effective concentration (EC50) in the series on Hepatitis C virus [4] of 34 nM. In addition, the CC50 at 72 h in [6] is > 1000 nM.
Compound `CC(C)CCN1C(=O)C(C2=NS(=O)(=O)c3cc(NS(C)(=O)=O)ccc3N2)=C(O)C2CCCN21` (configuration not stated) showed an IC50 with Hepatitis C virus [1] of 12 nM. In addition, the half-life at 1 µM was 63 min in series [2] (microsomes) and > 60 min in series [5] (microsomes). Moreover, the Papp A→B at 10 µM in series [7] stood at 0.2 ×10⁻⁶ cm/s. Also, the remaining at 1 h, 1 µM in [3] is 65%. In the series with Hepatitis C virus [4], this compound had an EC50 of 160 nM. Further, the CC50 at 72 h in [6] was > 1000 nM.
